pKd: −log10 of the molar value.
How the values were obtained:
JTY_0672 = target: T1, JTY_0672 (Mycobacterium tuberculosis, UniProt P96941)
T1 construct: gene Rv0653c

[1] = tested on: JTY_0672 (TetR family transcriptional regulator) (Mycobacterium bovis BCG Tokyo 172); test: BLI

T1 sequence (P96941 entry or part of it): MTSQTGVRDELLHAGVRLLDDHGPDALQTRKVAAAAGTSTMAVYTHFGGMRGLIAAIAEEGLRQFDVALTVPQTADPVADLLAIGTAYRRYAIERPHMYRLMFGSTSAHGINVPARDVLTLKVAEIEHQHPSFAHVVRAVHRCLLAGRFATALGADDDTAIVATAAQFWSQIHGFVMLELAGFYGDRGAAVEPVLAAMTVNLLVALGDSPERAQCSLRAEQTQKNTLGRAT

Row | Compound | concentration influencing DNA binding (JTY_0672) [mM] | pKd [1]
1 | N[C@@H](CC(=O)O)C(=O)O [Asp] | 20 | 
2 | N[C@@H](CS)C(=O)O [Cys] | 4 | 
3 | N[C@@H](CCC(=O)O)C(=O)O [Glu] | 20 | 
4 | N[C@@H](Cc1cnc[nH]1)C(=O)O [His] | 40 | 
5 | Cc1ncc(C[n+]2csc(CCO)c2C)c(N)n1 [VB1] | 8 | 
6 | O=C(O)c1cccnc1 [VB3] | 8 | 
7 | O=C1O[C@H]([C@@H](O)CO)C(O)=C1O [VC] | 4 | 
8 | ATTCATGGTCAGCGCCTTCCCCGGTGATCCGGATTATCTGCAACCGTCAG (double strand) [JTY_3148 promoter, 50 bp WT C13] |  | 5.30
9 | JTY_3148 promoter PCR fragment (biotin) |  | 5.66

Source: PMC11752888 (Frontiers in Microbiology, 2025)
